Measurements from US4495197A, “N-Carboxyl-thienamycin esters and analogs thereof as anti-inflammatory agents” (Merck & Co., Inc., priority 1982, dated 1985).
Where two headings read alike, the source gives them in different places.

Target: T1, Human Polymorphonuclear Leukocyte Elastase (Homo sapiens, UniProt P08246)
T1 construct: Crude extract of human polymorphonuclear leukocytes (PMN) containing elastase activity; from tissue; host or cells: human polymorphonuclear leukocytes (crude extract)
T1 sequence (P08246 30-247 limits assumed): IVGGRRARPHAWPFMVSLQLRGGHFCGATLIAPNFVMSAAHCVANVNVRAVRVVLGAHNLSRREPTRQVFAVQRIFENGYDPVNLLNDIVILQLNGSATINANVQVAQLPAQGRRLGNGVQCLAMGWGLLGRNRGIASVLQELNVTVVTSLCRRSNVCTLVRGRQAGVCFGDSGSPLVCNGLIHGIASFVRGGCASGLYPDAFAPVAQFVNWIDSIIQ
Assay: Inhibition of human PMN elastase via hydrolysis of N-t-Boc-alanyl-alanyl-prolylalanine-p-nitroanilide
Type: biochemical
Settings: pH 7.5
Experimental: Protocol-Enzyme Assays for the Inhibition of Human Polymorphonuclear Leukocyte Elastase Via Hydrolysis of N-t-Boc-alanyl-alanyl-prolylalanine-p-nitroanilide Reagents:
0.05M TES (N-tris[hydroxymethyl]methyl-2-amino-ethanesulfonic acid) Buffer, pH 7.5.
0.2 mM N-t-Boc-alanyl-alanyl-Prolyl-Alanine-p-nitroanilide (Boc-AAPAN).
To prepare substrate, the solid (m.w. 550) was first dissolved in 10.0 ml DMSO. Buffer at pH 7.5 was then added to a final volume of 100 ml.
Crude extract of human polymorphonuclear leukocytes (PMN) containing elastase activity.
Inhibitors (N-carboxyl-thienamycin eesters) to be tested dissolved in DMSO just before use.
To 1.0 ml of 0.2 mM Boc-AAPAN in a cuvette, 0.01-0.1 ml of DMSO with or without inhibitor was added. After mixing, a measurement was taken at 410 mμ to detect any spontaneous hydrolysis due to presence of test compound. 0.05 Milliliters of PMN extract was then added and the ΔOD/min at 410 mμ was measured and recorded. Beckman model 35 spectrophotometer was used.
Results were reported as % inhibition produced by test compound within 2 minutes as represented by the % decrease in ΔOD/min as compared to a control without inhibitor.
The elastase activity in the crude PMN extract may vary from one preparation to another. A control of each new batch is run, and the volume added in the assay procedure is adjusted according to activity.

Compound `CC(O)C1C(=O)N2C(C(=O)OCc3ccccc3)=C(SCCNC(=O)OCc3ccccc3)CC12` (centres unmarked) [" benzyl benzyl H H] has an inhibition at 5 µg/mL (conc. 5 μg/ml, measured within 2 minutes, crude PMN extract, Boc-AAPAN substrate, read-out: % Inhibition) of 33%, an inhibition at 20 µg/mL (conc. 20 μg/ml, measured within 2 minutes, crude PMN extract, Boc-AAPAN substrate, read-out: % Inhibition) of 69% and an inhibition at 50 µg/mL (conc. 50 μg/ml, measured within 2 minutes, crude PMN extract, Boc-AAPAN substrate, read-out: % Inhibition) of 86%.
In the case of `O=C(NCCSC1=C(C(=O)OCc2ccc([N+](=O)[O-])cc2)N2C(=O)CC2C1)OCc1ccc([N+](=O)[O-])cc1` (centres unmarked) [H PNB PNB H H], the inhibition at 5 µg/mL is reported as 18%, the inhibition at 20 µg/mL is reported as 50% and the inhibition at 50 µg/mL is reported as 63%.
With `CC(O)C1C(=O)N2C(C(=O)OCc3ccc([N+](=O)[O-])cc3)=C(SCC(C)(C)NC(=O)OCc3ccc([N+](=O)[O-])cc3)CC12` (centres unmarked) the inhibition at 0.5 µg/mL was 45%, the inhibition at 5 µg/mL was 89% and the inhibition at 20 µg/mL was 100%.
Compound `CC(CSC1=C(C(=O)OCc2ccc([N+](=O)[O-])cc2)N2C(=O)C(C(C)O)C2C1)NC(=O)OCc1ccc([N+](=O)[O-])cc1` (centres unmarked) has an inhibition at 0.5 µg/mL of 42%, an inhibition at 1 µg/mL of 55% and an inhibition at 2 µg/mL of 77%. The inhibition at 10 µg/mL was 94% and the inhibition at 25 µg/mL was 100%.
With `CC(OC(=O)OCc1ccc([N+](=O)[O-])cc1)C1C(=O)N2C(C(=O)OCc3ccc([N+](=O)[O-])cc3)=C(SCCNC(=O)OCc3ccc([N+](=O)[O-])cc3)CC12` (centres unmarked) the inhibition at 10 µg/mL was 29%, the inhibition at 25 µg/mL was 45% and the inhibition at 50 µg/mL was 55%.
